For 14 molecules, IC50 results are on record in patent US7511144B2, “Reverse hydroxamic acid derivatives” (Kaken Pharmaceutical Co., Ltd., priority 2001, dated 2009).

A value given as a limit tells only on which side of the number the result lay.

Format in all cases: biochemical
One test deals with T1, Human MMP17 (Homo sapiens, UniProt Q9ULZ9).
T1 construct: purchased Calbiochem 475940
T1 sequence (Q9ULZ9 126-300 limits assumed): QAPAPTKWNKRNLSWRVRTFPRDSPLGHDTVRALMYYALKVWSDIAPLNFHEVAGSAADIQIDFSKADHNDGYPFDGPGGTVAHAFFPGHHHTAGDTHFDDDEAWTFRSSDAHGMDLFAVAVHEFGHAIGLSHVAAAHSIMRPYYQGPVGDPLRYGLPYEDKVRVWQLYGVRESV
In words: MMP17 inhibition test. Particulars: concentration required for 50% inhibition of enzyme activity; read-out: IC50 value MMP-17.

In another test the target is T2, Human MMP2 (Homo sapiens, UniProt P08253).
T2 construct: purchased Calbiochem 444213
T2 sequence (P08253 110-660): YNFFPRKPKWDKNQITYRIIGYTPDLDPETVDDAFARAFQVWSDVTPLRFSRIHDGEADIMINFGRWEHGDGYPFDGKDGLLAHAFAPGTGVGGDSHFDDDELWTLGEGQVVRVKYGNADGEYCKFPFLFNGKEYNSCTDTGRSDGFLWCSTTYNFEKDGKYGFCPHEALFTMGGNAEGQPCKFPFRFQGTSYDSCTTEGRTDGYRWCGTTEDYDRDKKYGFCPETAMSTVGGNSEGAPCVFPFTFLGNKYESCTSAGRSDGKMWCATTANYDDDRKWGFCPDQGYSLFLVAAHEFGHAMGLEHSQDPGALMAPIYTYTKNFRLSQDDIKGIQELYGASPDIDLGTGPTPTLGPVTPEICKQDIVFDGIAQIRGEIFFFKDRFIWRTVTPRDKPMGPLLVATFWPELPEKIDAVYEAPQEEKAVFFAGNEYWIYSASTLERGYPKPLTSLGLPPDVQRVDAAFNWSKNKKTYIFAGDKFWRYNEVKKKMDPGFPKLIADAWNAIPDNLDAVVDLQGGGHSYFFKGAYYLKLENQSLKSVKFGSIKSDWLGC
In words: MMP2 inhibition experiment. Particulars: concentration required for 50% inhibition of enzyme activity; read-out: IC50 value MMP-2.

Another test addresses T3, Human MMP14 (Homo sapiens, UniProt P50281).
T3 construct: purchased Biogenesis or Calbiochem 5980-1461 or 475935
In words: MMP14 inhibition experiment. Particulars: concentration required for 50% inhibition of enzyme activity; read-out: IC50 value MMP-14. A digest of the protocol: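 Fluorescence assay: substrate Dnp-Pro-Cha-Gly-Cys(Me)-His-Ala-Lys(Nma)-NH2 (20 μM before equal-volume mixing) incubated at 37° C for 5 hours with 4 ng human MMP14.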

For a further test, the target named is T4, Human MMP8 (Homo sapiens, UniProt P22894).
T4 construct: purchased Calbiochem 444229
T4 sequence (P22894 101-467): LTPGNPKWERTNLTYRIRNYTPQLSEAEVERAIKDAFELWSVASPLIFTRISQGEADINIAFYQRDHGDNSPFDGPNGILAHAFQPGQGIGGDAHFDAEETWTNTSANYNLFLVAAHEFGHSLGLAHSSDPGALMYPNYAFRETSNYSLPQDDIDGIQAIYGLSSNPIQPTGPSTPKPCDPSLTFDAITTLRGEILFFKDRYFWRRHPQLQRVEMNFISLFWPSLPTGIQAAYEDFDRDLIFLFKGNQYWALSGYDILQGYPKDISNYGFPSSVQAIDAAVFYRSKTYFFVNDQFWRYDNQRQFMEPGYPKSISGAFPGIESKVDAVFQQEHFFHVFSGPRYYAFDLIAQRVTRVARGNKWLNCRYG
Kind of test: MMP8 inhibition experiment. The note with it: concentration required for 50% inhibition of enzyme activity; read-out: IC50 value MMP-8. Put shortly: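 Human MMP8 activated with APMA for 1 h at 37° C, then incubated with fluorogenic peptide MOCAc-Pro-Leu-Gly-Leu-A2pr(Dnp)-Ala-Arg-NH2 (20 μM stock) for 5 hours at 37° C. Fluorescent substrate cleavage serves as read-out.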

For a further test, the target named is T5, Human MMP3 (Homo sapiens, UniProt P08254).
T5 construct: purchased Calbiochem 444217
T5 sequence (P08254 100-272 limits assumed): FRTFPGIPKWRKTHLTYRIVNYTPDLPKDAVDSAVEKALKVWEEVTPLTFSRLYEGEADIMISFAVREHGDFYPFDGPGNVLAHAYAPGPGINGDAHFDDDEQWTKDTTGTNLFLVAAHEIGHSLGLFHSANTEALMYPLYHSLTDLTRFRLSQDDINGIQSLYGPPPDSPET
Kind of test: MMP3 inhibition experiment. Particulars: concentration required for 50% inhibition of enzyme activity; read-out: IC50 value MMP-3. Put shortly:
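Recombinant human MMP3 (5 ng) mixed with fluorogenic peptide NFF-3 (20 μM stock solution) and incubated 5 hours at 37° C; cleavage followed by fluorescence of the quenched substrate.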

Another test concerns the target T6, Human MMP9 (Homo sapiens, UniProt P14780).
T6 construct: purchased Calbiochem 444231
In words: MMP9 inhibition experiment. Particulars: read-out: IC50 value MMP-9.

A further test has as its target T7, TACE (Homo sapiens, UniProt P78536).
T7 construct: made in house; host or cells: mammalian cells or insect cells
In words: TACE inhibition experiment (in vitro).

Another test has as its target T8, Human MMP13 (Homo sapiens, UniProt P45452).
T8 construct: purchased Chemicon CC068
In words: MMP13 inhibition experiment. The note with it: concentration required for 50% inhibition of enzyme activity; read-out: IC50 value MMP-13.

For a further test, the target named is T9, Human MMP1 (Homo sapiens, UniProt P03956).
T9 construct: purchased Calbiochem 444208
T9 sequence (P03956 100-469): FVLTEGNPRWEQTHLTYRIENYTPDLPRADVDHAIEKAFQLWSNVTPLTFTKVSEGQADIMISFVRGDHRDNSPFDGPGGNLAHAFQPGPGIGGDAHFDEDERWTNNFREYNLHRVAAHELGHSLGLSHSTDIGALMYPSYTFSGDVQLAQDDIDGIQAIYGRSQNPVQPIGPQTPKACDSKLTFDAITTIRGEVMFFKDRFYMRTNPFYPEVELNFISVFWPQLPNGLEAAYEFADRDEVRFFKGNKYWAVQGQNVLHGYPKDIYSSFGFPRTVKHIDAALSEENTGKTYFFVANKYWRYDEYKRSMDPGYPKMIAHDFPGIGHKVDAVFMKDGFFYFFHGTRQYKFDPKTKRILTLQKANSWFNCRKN
In words: MMP1 inhibition experiment. Particulars: read-out: IC50 value MMP-1.

T6 sequence (P14780 107-707 limits assumed): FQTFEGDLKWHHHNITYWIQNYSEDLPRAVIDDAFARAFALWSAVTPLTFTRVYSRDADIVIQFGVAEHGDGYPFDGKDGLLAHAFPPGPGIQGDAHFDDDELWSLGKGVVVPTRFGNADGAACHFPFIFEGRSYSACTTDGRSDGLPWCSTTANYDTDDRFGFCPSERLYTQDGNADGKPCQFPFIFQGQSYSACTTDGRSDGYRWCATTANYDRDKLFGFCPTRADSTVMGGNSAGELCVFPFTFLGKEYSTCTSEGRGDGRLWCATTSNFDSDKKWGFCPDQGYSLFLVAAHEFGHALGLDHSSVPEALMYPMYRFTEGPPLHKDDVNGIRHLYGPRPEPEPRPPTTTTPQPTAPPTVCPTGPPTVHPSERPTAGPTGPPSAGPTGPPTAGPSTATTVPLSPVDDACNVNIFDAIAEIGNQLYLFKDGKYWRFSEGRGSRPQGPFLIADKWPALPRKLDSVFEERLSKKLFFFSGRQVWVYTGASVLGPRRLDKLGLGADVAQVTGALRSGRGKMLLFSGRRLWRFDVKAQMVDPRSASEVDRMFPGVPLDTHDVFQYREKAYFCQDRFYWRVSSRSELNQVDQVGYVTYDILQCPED
T7 sequence (P78536 215-824): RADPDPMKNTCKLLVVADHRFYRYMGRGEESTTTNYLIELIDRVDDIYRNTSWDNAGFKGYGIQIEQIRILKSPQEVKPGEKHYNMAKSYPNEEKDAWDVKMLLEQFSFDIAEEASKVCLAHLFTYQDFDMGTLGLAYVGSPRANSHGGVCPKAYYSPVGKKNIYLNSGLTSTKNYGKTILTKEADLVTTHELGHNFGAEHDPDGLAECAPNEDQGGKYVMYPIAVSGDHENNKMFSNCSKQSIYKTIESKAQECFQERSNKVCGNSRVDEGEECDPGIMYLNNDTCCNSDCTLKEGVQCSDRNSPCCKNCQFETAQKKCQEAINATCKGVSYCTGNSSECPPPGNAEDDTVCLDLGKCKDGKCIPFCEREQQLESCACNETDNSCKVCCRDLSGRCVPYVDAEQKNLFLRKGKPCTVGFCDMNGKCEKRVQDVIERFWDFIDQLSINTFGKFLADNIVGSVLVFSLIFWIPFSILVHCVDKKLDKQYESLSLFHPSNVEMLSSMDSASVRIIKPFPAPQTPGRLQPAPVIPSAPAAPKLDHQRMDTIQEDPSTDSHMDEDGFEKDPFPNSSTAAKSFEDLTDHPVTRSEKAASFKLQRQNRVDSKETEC
Protocol for Human MMP13: Human MMP13 (Chemicon #CC068) in amount of 90 μL (200 ng) was activated by mixing with 10 μL of 10 mM APMA, followed by reaction for 1 hour at 37° C. This enzyme solution in amount of 0.6 μL was diluted to 90 μL with the assay buffer A, which was added to 90 μL of 20 μM fluorescent substrate (Dnp-Pro-Cha-Gly-Cys(Me)-His-Ala-Lys(Nma)-NH2) prepared in the assay buffer B, followed by reaction for 4 hours at 37° C.
Protocol for Human MMP2: This enzyme solution in amount of 10 μL was diluted to 90 μL with the assay buffer A, which was added to 90 μL of 20 μM fluorescent substrate (MOCAc((7-methoxycoumarin-4-yl)acetyl)-Pro-Leu-Gly-Leu-A2pr(Dnp)-Ala-Arg-NH2, Peptide Institute, Inc., #3163-v) prepared in the assay buffer B, followed by reaction for 5 hours at 37° C.
Protocol for Human MMP9: The methods of inhibition experiments carried out for various MMPs are described below.
This enzyme solution in amount of 1 μL was diluted to 90 μL with the assay buffer A, which was added to 90 μL of 20 μM fluorescent substrate (Dnp-Pro-Cha-Gly-Cys(Me)-His-Ala-Lys(Nma)-NH2) prepared in the assay buffer B, followed by reaction for 4 hours at 37° C.

As a reminder, the IC50 is the midpoint of a concentration-inhibition curve. For `Cc1cc(COc2ccc(S(=O)(=O)CC(C=C3CCOCC3)N(O)C=O)cc2)cc(C)n1` (stereo not drawn) [Example I-115], the IC50 at Human MMP17 was 42 µM; on Human MMP2 it was 4 µM; at Human MMP14, more than 100 µM; at Human MMP8, 6 µM; at Human MMP3 it was 40 µM; at Human MMP9, more than 100 µM. Besides, the IC50 is 0.14 µM against TACE, 8 µM at Human MMP13 and more than 100 µM at Human MMP1.
Regarding `COCc1cc(COc2ccc(S(=O)(=O)CC(C=C3CCOCC3)N(O)C=O)cc2)cc(C)n1` (stereo not drawn) [Example I-116], the IC50 was 42 µM at Human MMP17; 26 µM at Human MMP2; more than 100 µM at Human MMP14; 28 µM at Human MMP8; 70 µM at Human MMP3; more than 100 µM on Human MMP9. Further, the IC50 at TACE is 0.16 µM; on Human MMP13, 39 µM; on Human MMP1, more than 100 µM.
For `COCc1cc(COc2ccc(S(=O)(=O)CC(c3ccccc3C)N(O)C=O)cc2)cc(C)n1` (stereo not drawn) [Example I-117], the IC50 at Human MMP17 is 22 µM; at Human MMP2, 12 µM; at Human MMP14, more than 100 µM; on Human MMP8, 20 µM; on Human MMP3, 20 µM; at Human MMP9 it was more than 100 µM. Also, the values for the IC50 on TACE, on Human MMP13 and at Human MMP1 were 0.62 µM, 28 µM and more than 100 µM, respectively.
Turning to `COCc1cc(COc2ccc(S(=O)(=O)CC(C=C3CCC4(CC3)OCCO4)N(O)C=O)cc2)cc(C)n1` (stereo not drawn) [Example I-118], the IC50 at Human MMP17 is 40 µM; at Human MMP2, 20 µM; on Human MMP14 it was more than 100 µM; on Human MMP8, 32 µM; at Human MMP3, 30 µM; at Human MMP9 it was more than 100 µM. The IC50 is 0.23 µM on TACE, 31 µM at Human MMP13 and more than 100 µM on Human MMP1.
Take `COCc1cc(COc2ccc(S(=O)(=O)CC(C=C3CCC(=O)CC3)N(O)C=O)cc2)cc(C)n1` (stereo not drawn) [Example I-119]: the IC50 on Human MMP17 was 58 µM; at Human MMP2, 50 µM; at Human MMP14 it was more than 100 µM; at Human MMP8 it was 60 µM; at Human MMP3, more than 100 µM; at Human MMP9 it was more than 100 µM. In addition, the IC50 at TACE is 0.32 µM; at Human MMP13, 60 µM; at Human MMP1, more than 100 µM.
As for `COCc1cc(COc2ccc(S(=O)(=O)CC(C=C3CCC(=NO)CC3)N(O)C=O)cc2)cc(C)n1` (stereo not drawn) [Example I-120], the IC50 is 33 µM at Human MMP17; 22 µM at Human MMP2; more than 100 µM at Human MMP14; 27 µM at Human MMP8; 68 µM at Human MMP3; more than 100 µM at Human MMP9. For the same molecule, the concentration for half-maximal inhibition (IC50) at TACE is 0.11 µM; at Human MMP13 it was 62 µM; at Human MMP1 it was more than 100 µM.
As to `COCc1cc(COc2ccc(S(=O)(=O)CC(CC3CCC(=NO)CC3)N(O)C=O)cc2)cc(C)n1` (stereo not drawn) [Example I-122], the IC50 on Human MMP17 was 18 µM; at Human MMP2, 9 µM; on Human MMP14, more than 100 µM; on Human MMP8, 14 µM; at Human MMP3, 21 µM; at Human MMP9, more than 100 µM. Further, the IC50 against TACE is 0.2 µM; on Human MMP13, 12 µM; on Human MMP1, more than 100 µM.
With `Cc1cc(COc2ccc(S(=O)(=O)CC(c3ccccc3C)N(O)C=O)cc2)c2cccc(F)c2n1` (stereo not drawn) [Example I-124, N-{2-[4-(8-fluoro-2-methylquinolin-4-ylmethoxy)benzenesulfonyl]-1-o-tolylethyl}-N-hydroxyformamide], the half-inhibitory concentration (IC50) on Human MMP17 was found to be 4.8 µM; on Human MMP2, 1.9 µM; at Human MMP14, 7 µM; at Human MMP8 it was 1.9 µM; on Human MMP3, 4.8 µM; at Human MMP9, 24 µM. Moreover, the IC50 against TACE was 0.006 µM; at Human MMP13, 5.8 µM; on Human MMP1, 34 µM.
For the molecule `COCOC1CCC(C)(C(CS(=O)(=O)c2ccc(OCc3cc(C)nc4ccccc34)cc2)N(O)C=O)CC1` (stereo not drawn) [Example I-128], the IC50 at Human MMP17 was 0.54 µM; on Human MMP2, 43 µM; on Human MMP14, 50 µM; on Human MMP8, 25 µM; at Human MMP3 it was 1.3 µM; on Human MMP9, more than 100 µM. The values for the IC50 at TACE, at Human MMP13 and on Human MMP1 were 0.032 µM, 22 µM and more than 100 µM, respectively.
Regarding `Cc1cccc(CCC(CS(=O)(=O)c2ccc(OCc3cc(C)nc4ccccc34)cc2)N(O)C=O)n1` (stereo not drawn) [Example I-129], the IC50 on Human MMP17 was 3.4 µM; at Human MMP2 it was 12 µM; on Human MMP14, 50 µM; on Human MMP8 it was 33 µM; on Human MMP3 it was 3.1 µM; on Human MMP9, more than 100 µM. Further, the IC50 at TACE is 0.012 µM; at Human MMP13 it was 17 µM; on Human MMP1, more than 100 µM.
For `CCC(CC)C(=O)N1CCCC(C(CS(=O)(=O)c2ccc(OCc3cc(C)nc4ccccc34)cc2)N(O)C=O)C1` (stereo not drawn) [Example I-130], the IC50 at Human MMP17 was determined as 0.11 µM; at Human MMP2, 2.6 µM; at Human MMP14 it was 19 µM; on Human MMP8 it was 7 µM; at Human MMP3, 0.24 µM; on Human MMP9, 46 µM. Also, the half-maximal inhibitory concentration (IC50) was found to be 0.014 µM at TACE, 2.7 µM on Human MMP13 and 50 µM at Human MMP1.
`Cc1cc(COc2ccc(S(=O)(=O)CC(C3CCCN(C(=O)c4ccccc4)C3)N(O)C=O)cc2)c2ccccc2n1` (stereo not drawn) [Example I-131]: the 50% inhibitory concentration (IC50) on Human MMP17 was found to be 0.1 µM; at Human MMP2, 4.4 µM; on Human MMP14 it was 22 µM; at Human MMP8 it was 4.1 µM; at Human MMP3, 0.2 µM; on Human MMP9, 50 µM. In addition, the IC50 against TACE amounted to 0.02 µM; on Human MMP13, 3.2 µM; on Human MMP1, 47 µM.
Regarding `CCC(CC)C(=O)N1CCC(C(CS(=O)(=O)c2ccc(OCc3cc(C)nc4ccccc34)cc2)N(O)C=O)CC1` (stereo not drawn) [Example I-132], the IC50 on Human MMP17 was determined as 0.085 µM; at Human MMP2 it was 2.2 µM; on Human MMP14 it was 16 µM; at Human MMP8, 8 µM; at Human MMP3, 0.21 µM; on Human MMP9, 40 µM. For the same molecule, the IC50 on TACE was 0.023 µM; at Human MMP13, 2.2 µM; on Human MMP1, 53 µM.
As for `Cc1cc(COc2ccc(S(=O)(=O)CC([C@H]3CSC(=O)N3C)N(O)C=O)cc2)c2ccccc2n1` (stereo partly drawn) [Example I-136], the IC50 came out at 0.62 µM at Human MMP17; 26 µM on Human MMP2; 50 µM on Human MMP14; 13 µM on Human MMP8; 2 µM at Human MMP3; 50 µM at Human MMP9. Also, the IC50 against TACE came out at 0.0065 µM; at Human MMP13, 26 µM; at Human MMP1 it was 48 µM.
